Results: patent US20140106387A1, “METHOD FOR CONTROLLING NAD(P)/NAD(P)H RATIO BY OXIDOREDUCTASE” (MD BIOALPHA CO., LTD., priority 2006, published 2014)

Legend:
[1] = tested on: HEK293 cells; assay: intracellular ATP, ADP and AMP levels by LC-MS in HEK293; type: cell-based, human; settings: HEK293 cells having no NQO1 activity, 2 hours
Protocol: Samples were analyzed using an Agilent 1100 series LC/MSD system equipped with G1322A degasser, G1312A binary pump, G1315A photo-diode-array detector, 59987A electrospray interface and 5989B mass spectrometer. ES-MS analysis was performed using an Agilent 5989 electrospray (ES) mass spectrometer (MS) with an Agilent Atmospheric Pressure Ionization (API) interface fitted with a hexapole ion guide. Chromatogram was automatically integrated with the aid of Chemstation software, and concentrations were determined using a standard calibration curve.
Acid extraction was used for analysis of an AOPN concentration in the cells and liver tissues. 400 μl of 6% HClO4 was added to the cells cultured in a 100 mm dish, whereas a two-fold volume of 6% HClO4 was added to the liver tissues which were then immediately homogenized. Each mixture was centrifuged at 14,000 g and 4° C. for 10 min, and the resulting supernatants were neutralized by addition of 1 M borate buffer (pH 11) containing 4 mM EDTA in an amount of 75%. Samples were aliquoted and stored at a temperature of −80° C.
A mobile phase was 100 mM ammonium acetate:MeOH (98:2, v/v), and preparations were filtered through a 0.22-μm Millipore filter. A flow rate was set to 0.8 mL/min and detection was made at 254 nm. Separation was carried out using a ZORBAX Bonus-RP C18 column (3.5 μm, 4.6×150 mm I.D., Waters, USA). […]

[2] = beta-oxidation assay: 14C-palmitic acid incorporated into liver triglyceride; type: in vivo, mouse; settings: DIO mice fed 50 mg/kg for 7 days; liver removed 10 min after 14C-palmitic acid IV
Protocol: The injection solution prepared in Section 1 was injected into tail veins of DIO mice at a dose of 10 microCi/150 μl/head, and the liver was removed 10 min later.
The removed liver was immediately and rapidly frozen in liquid nitrogen and weighed. A 5-fold weight of a 5 mM Tris-HCl buffer solution containing 0.25 M sucrose, 5 mM MgCl2, 1 mM mercaptoethanol and 0.5 mM EDTA was added to the liver tissues which were then homogenized. Equal amounts of each sample was taken and transferred to fresh 15 mL containers to which a 2.5-fold amount of C/M solution (chloroform:MetOH=2:1) was added, respectively. The mixtures were thoroughly mixed using a homogenizer for 2 min, centrifuged at 2500 rpm for 20 min to separate chloroform layers that were then transferred to fresh containers. The remaining materials were thoroughly mixed with 2-fold amounts of the C/M solution for 2 min, and centrifuged to separate chloroform layers. […] Then, more than 10-fold volumes of a toluene cocktail solution were added to chloroform layers of the vials and the mixtures were thoroughly mixed using a stirrer, and radioactivity was measured using a scintillation counter.
10 μCi of 14C-palmitic acid was IV-injected to a tail vein of mice and 10 min later the liver was removed and homogenized Fat was extracted from the homogenizate, and radioactivity was measured by a liquid scintillation counter.

[3] = tested on: AMPK, ACC; assay: AMPK and ACC phosphorylation in HepG2 cells (Western blot); type: cell-based, human
Protocol: Cells were lysed in SDS sample buffer (62.5 mM Tris HCl (pH 6.8), 6% (w/v) SDS, 30% glycerol, 125 mM DTT, and 0.03% (w/v) bromophenol blue). The total cell lysates were boiled at a temperature of 100° C. for 5 min and electrophoresed on a sodium dodecyl sulfate-polyacrylamide gel, and proteins were transferred on a nitrocellulose membrane. The membrane was reacted in TBS (5% (w/v) milk and 0.1% Tween 20) for 1 hour, and then reacted with primary antibodies for 2 hours. Next, the membrane was developed using HRP-conjugated secondary antibodies (Phototope-HRP Western Blot Detection Kit, New England Biolabs, Beverly, Mass.).
HepG2 (human hepatoma cell line), HEK293 (Human embryonic kidney cell line), and C2C12/L6 myoblasts were purchased from American Type Culture Collection (ATCC, Manassas, Va., USA). LKB−/− MEFs were purchased from R.A. DePinho. Rat ventricular myocytes were enzymatically isolated from the heart of adult […] by a known method. Phosphorylation of AMPK (Thr172) and ACC (Ser79) was measured by Western blot analysis using Cell Signaling Technologies and pan- and phospho-specific antibodies (Upstate Biotechnology, Inc., Lake Placid, N.Y.).
This Example was carried out to confirm whether an NQO1 activator has effects through NQO1 on phosphorylation of AMPK and ACC that are intracellular energy-regulating proteins. In order to examine phosphorylation of AMP kinase and ACC (acetyl-CoA carboxylase) by the NQO1 activator pyrano-1,2-naphthoquinone, HepG2 cells (Human hepatoma cell line) were seeded onto a 6-well plate at a density of 1×10^5 cells per well, and cultured in a RPMI+10% FBS medium. After growing the cells for 24 hours, the culture medium was replaced with a serum-free RPMI medium and cells were treated with pyrano-1,2-naphthoquinone (10 μM) for 30 min, 1 hr, 2 hrs, 4 hrs and 6 hrs, in combination with a control (DMSO). Anti-ACC and Anti-pS79-ACC were used to observe phosphorylated ACC, whereas Anti-AMPK and Anti-pT172-AMPK were used to observe phosphorylated AMP kinase.
In order to investigate the importance of an NQO1 protein in phosphorylation of AMP kinase, HepG2, MCF-7 and HEK293 cells were seeded onto 60 mm plates at a density of 1×10^6 cells/plate. After growing the cells for 24 hours, the culture medium was replaced with a serum-free medium, and cells were treated with pyrano-1,2-naphthoquinone (10 μM) for 30 min, respectively, in combination with a control group (DMSO). Cells were lysed in RIPA buffer and amounts of all proteins were quantified using a spectrophotometer, and 50 μg of the protein was subjected to electrophoresis. AMP kinase phosphorylation was examined using Anti-AMPK and Anti-pT172-AMPK, whereas the NQO1 protein was assayed using Anti-NQO1. […]

[4] = tested on: HepG2 cells; assay: mitochondrial oxygen consumption (Clark-type oxygen electrode) in HepG2 cells; type: cell-based, human
Source text: (§1) FIG. 22 is a graph showing monitoring results of mitochondrial oxygen consumption using a Clark-type oxygen electrode;

[5] = tested on: HEK293 cells; assay: mitochondrial oxygen consumption in HEK293 cells; type: cell-based, human
Source text: as §1

[6] = tested on: AMPK; assay: AMPK kinase assay in mouse tissues; type: in vivo
[7] = spontaneous locomotor activity; type: in vivo, mouse; settings: C57BL/6 DIO mice, 3 hours after administration, measured for 7 hours
Protocol: Pyrano-1,2-naphthoquinone was administered to C57BL/6 DIO mice, and 3 hours later spontaneous locomotor activity was measured using Versa MAX Activity Monitors & Analyzer (AccuSan Instruments, Columbus, Ohio, USA). […] In order to distinguish between spontaneous locomotor and stereotypic/grooming behavior, animal activity was measured by taking continuous interference of two different scanning lines caused by mice as an effective determination standard. The pyrano-1,2-naphthoquinone-administered group, the vehicle-administered group and the control group were respectively placed in each measuring apparatus, and activity and motion of animals were measured for 7 hours. For acclimation of the animals to the new environment, mice were placed in the apparatus 2 hours prior to measurement.

[8] = DIO mice, oral 50 mg/kg, data not shown

## CC1(C)CCC2=C(O1)c1ccccc1C(=O)C2=O [βL, 2,2-Dimethyl-3,4-dihydro-2H-benzo[h]chromene-5,6-dione]
[1]
  intracellular ATP level: no significant changes in the intracellular ATP level
[2]
  amount of 14C-palmitic acid incorporated into hepatic triglyceride (TG), lower than vehicle-treated mice: about 45%
[3]; HepG2, 10 μM
  duration of AMP kinase phosphorylation effects: up to 6 hours
  initial time point at which phosphorylation of AMP kinase was observed: 30 min
  phosphorylation of ACC: also phosphorylated
[3]; HepG2 cells
  ACC phosphorylation and AMPK phosphorylation/activation: accelerates
[4]
  mitochondrial oxygen consumption: increased
[5]
  increased oxygen consumption: not observed
[6]; C57BL/6 mice, 5 mg/kg tail vein, 2 hours and 4 hours
  AMPK activity in the liver and gonadal adipose tissues: increased AMPK activity
[6]; DIO mice, oral 50 mg/kg
  AMPK activity in liver, EDL and soleus muscle vs vehicle-treated control: higher
[6]; [8]
  duration of oral administration effect on AMPK activity: about 6 hours
  time of maximum oral administration effect on AMPK activity: 2 h
[7]
  spontaneous locomotor activity: significant difference in the motion and activity of animals
